One series deals with primary rat astrocytes. The series is described as follows: Superoxide anion production in primary rat astrocytes incubated with oxaliplatin. The conditions noted are these: oxaliplatin 100 μM alone, 4 hours; control 16.9±0.3 μM. The series is classed as cell-based. The procedure: FIG. 1. Evaluation of the antioxidant profile of ADM-12 in a rat primary astrocytes cell culture *P<0.01 with respect to the untreated control and ̂P<0.01 with respect to astrocytes treated with oxaliplatin.
The antioxidant profile of ADM-12 also emerges in a cell culture of primary rat astrocytes (FIG. 1). Incubation of cells with the chemotherapic agent oxaliplatin 100 μM induces a significant production of the superoxide anion, which after 4 hours increases from 16.9±0.3 μM of the control to 31.1±2.1 μM; co-treatment with ADM-12 100 μM reduces the production of oxygen free radicals to 21.0±0.4 μM.

A short description of series [1]: Compatibility with oxaliplatin in physiological solution (1H NMR, mass spectra). The series is classed as physicochemical.

This is an account of results in patent publication US20160362402A1, “NOVEL COMPOUNDS HAVING ANTI-ALLODYNIC AND ANTIHYPERALGESIC ACTIVITY” (CONSORZIO INTERUNIVERSITARIO NAZIONALE PER LA SCIENZA E …, priority 2014, published 2016).

Turning to `O=C1[O][Pt]2([NH][C@@H]3CCCC[C@H]3[NH]2)[O]C1=O` [oxaliplatin], in the series with primary rat astrocytes, the “production of the superoxide anion” value stood at 31.1 ± 2.1 µM. The “structural integrity when mixed” value in series [1] (ADM-12 and oxaliplatin mixed in physiological solution) is recorded as “remain structurally unaltered”. Moreover, the “signal variations at 1H NMR and in mass spectra” value in series [1] (ADM-12 with oxaliplatin in physiological solution, 24 and 48 hours, room temperature and 37° C.) is “does not show signal variations”.
